Reference: PubChem BioAssay AID256 (DTP/NCI, 2004)
Where “and” joins values, the source holds several entries; their conditions need not be identical. Identical values can stand only once. Toxic doses and inconclusive results are not listed.

Tested on: CD2F1 mice, L1210 leukemia ip, survival T/C
Assay: NCI In Vivo Anticancer Drug Screen. Data for tumor model L1210 Leukemia (intraperitoneal) in CD2F1 (CDF1) mice
Conditions: higher = longer survival
Summary of the method: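 Tumor-bearing mice (transplanted tumor) were split into treated and vehicle control groups, and the measured endpoint of each treated group was divided by that of its vehicle controls.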

[1] = endpoint: mean survival time, dose: 100.0 mg/kg/injection, schedule: Q04DX003 (ip), vehicle: saline with Tween-80
[2] = endpoint: mean survival time, dose: 200.0 mg/kg/injection, schedule: Q04DX003 (ip), vehicle: saline with Tween-80
[3] = endpoint: mean survival time, dose: 400.0 mg/kg/injection, schedule: Q04DX003 (ip), vehicle: saline with Tween-80

CC[C@@]1(O)C(=O)OCc2c1cc1n(c2=O)Cc2cc3cc(O)ccc3nc2-1
T/C (endpoint: mean survival time, dose: 2.0 mg/kg/injection, schedule: Q04DX003 (ip), vehicle: other): 155 % of control
T/C (endpoint: mean survival time, dose: 4.0 mg/kg/injection, schedule: Q04DX003 (ip), vehicle: other): 174 % of control
T/C (endpoint: mean survival time, dose: 16.0 mg/kg/injection, schedule: Q04DX003 (ip), vehicle: other): 107 % of control
T/C (endpoint: median survival time, dose: 1.25 mg/kg/injection, schedule: Q04DX002 (ip), vehicle: saline): 184 % of control
T/C (endpoint: median survival time, dose: 1.5 mg/kg/injection, schedule: Q04DX002 (ip), vehicle: saline): 166 % of control
T/C (endpoint: median survival time, dose: 2.5 mg/kg/injection, schedule: Q04DX002 (ip), vehicle: saline): 162 % of control and 253 % of control
T/C (endpoint: median survival time, dose: 3.0 mg/kg/injection, schedule: Q04DX002 (ip), vehicle: suspension in saline): 150 % of control
T/C (endpoint: median survival time, dose: 5.0 mg/kg/injection, schedule: Q04DX002 (ip), vehicle: saline): 232 % of control and 301 % of control
T/C (endpoint: median survival time, dose: 6.0 mg/kg/injection, schedule: Q04DX002 (ip), vehicle: suspension in saline): 153 % of control
T/C (endpoint: median survival time, dose: 10.0 mg/kg/injection, schedule: Q04DX002 (ip), vehicle: saline): 192 % of control and 209 % of control
T/C (endpoint: median survival time, dose: 12.0 mg/kg/injection, schedule: Q04DX002 (ip), vehicle: suspension in saline): 228 % of control
T/C (endpoint: median survival time, dose: 20.0 mg/kg/injection, schedule: Q04DX002 (ip), vehicle: saline): 184 % of control and 348 % of control
T/C (endpoint: median survival time, dose: 40.0 mg/kg/injection, schedule: Q04DX002 (ip), vehicle: saline): 102 % of control
T/C (endpoint: median survival time, dose: 48.0 mg/kg/injection, schedule: Q04DX002 (ip), vehicle: suspension in saline): 87 % of control

COc1cc(Cl)ccc1NC(=O)OCCOc1ccc(Br)cc1
T/C (endpoint: mean survival time, dose: 12.5 mg/kg/injection, schedule: Q01DX009 (ip), vehicle: saline with Tween-80): 91 % of control
T/C (endpoint: mean survival time, dose: 25.0 mg/kg/injection, schedule: Q01DX009 (ip), vehicle: saline with Tween-80): 87 % of control
T/C (endpoint: mean survival time, dose: 50.0 mg/kg/injection, schedule: Q01DX009 (ip), vehicle: saline with Tween-80): 119 % of control and 91 % of control

OCC(O)C(O)C(O)C(O)CO (stereo not drawn) (tested in a mixture with another compound)
T/C (endpoint: mean survival time, dose: 37.5 mg/kg/injection, schedule: Q01DX001 (ip), vehicle: saline): 94 % of control
T/C (endpoint: mean survival time, dose: 75.0 mg/kg/injection, schedule: Q01DX001 (ip), vehicle: saline): 96 % of control
T/C (endpoint: mean survival time, dose: 100.0 mg/kg/injection, schedule: Q01DX001 (ip), vehicle: saline with Tween-80): 88 % of control and 104 % of control
T/C [1]: 93 % of control and 90 % of control
T/C (endpoint: mean survival time, dose: 150.0 mg/kg/injection, schedule: Q01DX001 (ip), vehicle: saline): 95 % of control
T/C (endpoint: mean survival time, dose: 200.0 mg/kg/injection, schedule: Q01DX001 (ip), vehicle: saline with Tween-80): 88 % of control and 98 % of control
T/C [2]: 95 % of control and 90 % of control
T/C (endpoint: mean survival time, dose: 400.0 mg/kg/injection, schedule: Q01DX001 (ip), vehicle: saline with Tween-80): 92 % of control and 93 % of control
T/C [3]: 97 % of control and 92 % of control

O=C(Nc1cccc(C(F)(F)F)c1)c1cccc(Cl)c1
T/C (endpoint: mean survival time, dose: 100.0 mg/kg/injection, schedule: Q01DX009 (ip), vehicle: saline + alcohol): 94 % of control
T/C (endpoint: mean survival time, dose: 100.0 mg/kg/injection, schedule: Q04DX003 (ip), vehicle: saline + alcohol): 95 % of control
T/C (endpoint: mean survival time, dose: 200.0 mg/kg/injection, schedule: Q01DX009 (ip), vehicle: saline + alcohol): 94 % of control
T/C (endpoint: mean survival time, dose: 200.0 mg/kg/injection, schedule: Q04DX003 (ip), vehicle: saline + alcohol): 97 % of control
T/C (endpoint: mean survival time, dose: 400.0 mg/kg/injection, schedule: Q01DX009 (ip), vehicle: saline + alcohol): 98 % of control
T/C (endpoint: mean survival time, dose: 400.0 mg/kg/injection, schedule: Q04DX003 (ip), vehicle: saline + alcohol): 101 % of control

COC(=O)NC1=Nc2ccccc2-c2ccccc2N1
T/C [1]: 101 % of control
T/C [2]: 96 % of control
T/C [3]: 96 % of control

CC[CH2][Sn]([Cl])([Cl])[CH2]CC.Oc1ccccc1C=NCCN=Cc1ccccc1O
T/C (endpoint: mean survival time, dose: 0.62 mg/kg/injection, schedule: Q01DX009 (ip), vehicle: gum acacia): 100 % of control
T/C (endpoint: mean survival time, dose: 1.25 mg/kg/injection, schedule: Q01DX009 (ip), vehicle: gum acacia): 100 % of control
T/C (endpoint: mean survival time, dose: 2.5 mg/kg/injection, schedule: Q01DX009 (ip), vehicle: gum acacia): 97 % of control and 103 % of control
T/C (endpoint: mean survival time, dose: 3.3 mg/kg/injection, schedule: Q01DX009 (ip), vehicle: saline with Tween-80): 103 % of control
T/C (endpoint: mean survival time, dose: 5.0 mg/kg/injection, schedule: Q01DX001 (ip), vehicle: saline with Tween-80): 94 % of control
T/C (endpoint: mean survival time, dose: 5.0 mg/kg/injection, schedule: Q01DX009 (ip), vehicle: gum acacia): 104 % of control and 108 % of control
T/C (endpoint: mean survival time, dose: 5.0 mg/kg/injection, schedule: Q01DX009 (ip), vehicle: saline with Tween-80): 92 % of control
T/C (endpoint: mean survival time, dose: 7.5 mg/kg/injection, schedule: Q01DX009 (ip), vehicle: saline with Tween-80): 95 % of control
T/C (endpoint: mean survival time, dose: 10.0 mg/kg/injection, schedule: Q01DX001 (ip), vehicle: saline with Tween-80): 95 % of control
T/C (endpoint: mean survival time, dose: 20.0 mg/kg/injection, schedule: Q01DX001 (ip), vehicle: saline with Tween-80): 96 % of control

CCc1ccc(NS(=O)(=O)c2ccccc2)cc1
T/C (endpoint: mean survival time, dose: 100.0 mg/kg/injection, schedule: Q01DX009 (ip), vehicle: saline with Tween-80): 90 % of control
T/C (endpoint: mean survival time, dose: 200.0 mg/kg/injection, schedule: Q01DX009 (ip), vehicle: saline with Tween-80): 106 % of control
T/C (endpoint: mean survival time, dose: 400.0 mg/kg/injection, schedule: Q01DX009 (ip), vehicle: saline with Tween-80): 95 % of control
